According to patent publication US20250163043A1 (TRANSTHERA SCIENCES (NANJING), INC., priority 2021, published 2025):

How the values were obtained:
Format in all cases: biochemical
[1] = molecular target: CDK2/CycA2 (Homo sapiens, UniProt P24941); test: ADP-Glo kinase assay on CDK enzymatic activity, CDK2/CycA2; settings: 10 concentrations from 10 μM, 4-fold, 60 min room temperature
Description: (§1) Test samples: the compounds of the present invention, having structures shown above.
(§2) ADP-Glo Kinase Assay (ADP-Glo kinase kit), DMSO (dimethyl sulfoxide), CDK9/CycT1 (cyclin-dependent kinase 9/cyclin T1), CDK tide (cyclin-dependent kinase substrate peptide fragments), CDK1/CycE1 (cyclin-dependent kinase 1/cyclin E1), CDK2/CycA2 (cyclin-dependent kinase 2/cyclin A2), CDK3/CycE1 (cyclin-dependent kinase 3/cyclin E1), CDK4/CycD3 (cyclin-dependent kinase 4/cyclin D3), CDK5/p25NCK (cyclin-dependent kinase 5/p25), and AZD 4573.
(§3) A 384-well white plate, a 96-well plate, a microplate oscillator, a centrifuge, and a microplate reader.
(§4) The compounds were dissolved in DMSO and diluted 4-fold in the 96-well plate to obtain stock solutions with 10 concentration gradients, and added into a 384-well plate system to obtain a series of 10 concentration gradients of compound solutions with final concentrations of 10 μM starting and 4-fold gradient decreasing. 1 μM AZD4573 was used as compound positive control (PC) and 0.5% DMSO as solvent vehicle control (VC), ten duplicated wells each for PC and VC.
(§5) 1 μL of compound solution and 2 μL of 2× kinase solution were transferred to each well, and the plate was centrifuged at 1000 g for 30 s and left at room temperature for 10 min. A mixture of 2× substrate and ATP was prepared in 1× kinase buffer. The reaction was started after adding 2 μL of substrate and ATP into the plate. The plate was centrifuged at 1000 g for 30 s. The assay plate was closed and left at room temperature for 60 min. The reaction system was added with 4 μL of ADP Glo reagent, centrifuged at 1000 rpm for 1 min, and incubated at room temperature for 40 min. The reaction system was added with 8 μL of kinase assay reagent, centrifuged at 1000 rpm for 1 min and incubated at room temperature for 40 min. The […] was read on Biotek.
(§6) The inhibition rate was calculated according to the following formula: […]
(§7) Lumcmpd: compound fluorescence reading; Lumpositive: average value of the fluorescence reading of positive compound control; Lumvehicle: average value of the fluorescence reading of solvent vehicle control.
(§8) IC50 values were fitted using GraphPad 7.0 based on inhibition rates of compounds at different concentrations.

[2] = molecular target: CDK3/CycE1 (Homo sapiens, UniProt Q00526); test: ADP-Glo kinase assay on CDK enzymatic activity, CDK3/CycE1; settings: 10 concentrations from 10 μM, 4-fold, 60 min room temperature
CDK3/CycE1, sequence (Q00526 whole entry, species assumed): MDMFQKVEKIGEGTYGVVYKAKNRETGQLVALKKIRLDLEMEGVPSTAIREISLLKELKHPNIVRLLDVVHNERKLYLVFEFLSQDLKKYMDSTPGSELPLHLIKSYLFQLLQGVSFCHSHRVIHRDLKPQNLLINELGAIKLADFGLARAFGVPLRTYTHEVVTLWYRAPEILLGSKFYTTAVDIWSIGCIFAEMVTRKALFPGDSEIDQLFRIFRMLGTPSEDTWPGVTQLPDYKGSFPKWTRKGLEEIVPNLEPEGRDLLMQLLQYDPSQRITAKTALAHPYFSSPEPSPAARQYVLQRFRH
CDK3/CycE1, sequence (P24864 whole entry partner, species assumed): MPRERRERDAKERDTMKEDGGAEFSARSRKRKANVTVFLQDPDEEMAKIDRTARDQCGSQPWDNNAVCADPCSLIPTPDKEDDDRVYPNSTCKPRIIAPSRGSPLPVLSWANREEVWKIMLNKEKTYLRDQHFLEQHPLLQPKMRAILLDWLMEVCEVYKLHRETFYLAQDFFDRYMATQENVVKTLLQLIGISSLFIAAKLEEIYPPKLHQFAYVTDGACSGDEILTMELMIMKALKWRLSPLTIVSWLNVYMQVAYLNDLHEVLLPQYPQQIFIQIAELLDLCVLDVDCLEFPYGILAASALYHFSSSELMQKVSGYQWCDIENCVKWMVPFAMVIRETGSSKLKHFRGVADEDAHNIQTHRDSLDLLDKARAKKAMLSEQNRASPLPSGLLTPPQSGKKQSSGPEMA
Description: as §1, §2, §3, §4, §5, §6, §7, §8

[3] = molecular target: CDK9/CycT1 (Homo sapiens, UniProt P50750); test: ADP-Glo kinase assay on CDK enzymatic activity, CDK9/CycT1; settings: 10 concentrations from 10 μM, 4-fold, 60 min room temperature
CDK9/CycT1, sequence (P50750 whole entry): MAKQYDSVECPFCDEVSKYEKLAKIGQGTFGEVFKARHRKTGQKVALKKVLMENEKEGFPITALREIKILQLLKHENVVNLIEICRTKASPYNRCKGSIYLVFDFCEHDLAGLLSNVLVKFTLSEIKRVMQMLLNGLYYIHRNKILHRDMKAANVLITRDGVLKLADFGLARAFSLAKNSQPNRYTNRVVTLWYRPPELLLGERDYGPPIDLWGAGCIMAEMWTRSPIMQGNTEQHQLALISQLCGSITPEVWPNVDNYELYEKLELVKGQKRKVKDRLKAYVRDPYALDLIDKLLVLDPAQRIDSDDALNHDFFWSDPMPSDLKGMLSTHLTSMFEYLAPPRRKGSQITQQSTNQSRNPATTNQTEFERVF
CDK9/CycT1, sequence (O60563 whole entry partner): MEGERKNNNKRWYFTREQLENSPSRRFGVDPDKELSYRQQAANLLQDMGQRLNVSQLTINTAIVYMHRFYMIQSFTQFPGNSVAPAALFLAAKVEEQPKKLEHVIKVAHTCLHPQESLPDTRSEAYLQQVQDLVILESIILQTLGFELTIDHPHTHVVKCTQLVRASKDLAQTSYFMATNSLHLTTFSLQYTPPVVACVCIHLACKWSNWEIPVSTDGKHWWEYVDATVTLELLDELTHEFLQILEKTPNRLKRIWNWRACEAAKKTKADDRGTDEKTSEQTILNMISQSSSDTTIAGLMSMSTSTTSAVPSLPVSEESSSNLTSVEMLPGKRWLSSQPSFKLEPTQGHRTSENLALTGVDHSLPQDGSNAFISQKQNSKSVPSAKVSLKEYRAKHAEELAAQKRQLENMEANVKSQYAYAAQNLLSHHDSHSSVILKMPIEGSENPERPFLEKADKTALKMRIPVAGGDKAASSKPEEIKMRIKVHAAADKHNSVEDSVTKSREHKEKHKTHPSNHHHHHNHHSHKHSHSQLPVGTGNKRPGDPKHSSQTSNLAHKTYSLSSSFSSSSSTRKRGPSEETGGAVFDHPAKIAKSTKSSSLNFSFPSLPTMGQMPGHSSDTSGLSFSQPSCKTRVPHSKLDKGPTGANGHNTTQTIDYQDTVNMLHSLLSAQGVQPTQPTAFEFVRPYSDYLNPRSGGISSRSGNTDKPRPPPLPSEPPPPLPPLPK
Procedure, shortened: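 Kinase and compound are mixed and held 10 min at room temperature before substrate peptide and ATP start a 60 min reaction. Remaining ATP is depleted with ADP-Glo reagent (40 min), detection reagent is added (40 min), and luminescence gives inhibition rates across ten concentrations from 10 μM, fitted to IC50.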

[4] = molecular target: CDK5/p25NCK (Homo sapiens, UniProt Q00535); test: ADP-Glo kinase assay on CDK enzymatic activity, CDK5/p25NCK; settings: 10 concentrations from 10 μM, 4-fold, 60 min room temperature
CDK5/p25NCK, sequence (Q00535 whole entry, species assumed): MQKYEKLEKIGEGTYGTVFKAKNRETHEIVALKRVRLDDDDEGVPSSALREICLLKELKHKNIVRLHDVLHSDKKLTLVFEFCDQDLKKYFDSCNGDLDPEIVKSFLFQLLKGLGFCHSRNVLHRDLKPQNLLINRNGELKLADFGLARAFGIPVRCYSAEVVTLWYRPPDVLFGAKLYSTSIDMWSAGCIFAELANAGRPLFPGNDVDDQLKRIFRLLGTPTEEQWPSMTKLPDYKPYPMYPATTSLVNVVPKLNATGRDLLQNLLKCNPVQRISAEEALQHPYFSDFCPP
CDK5/p25NCK, sequence (Q15078 99-307 partner limits assumed, species assumed): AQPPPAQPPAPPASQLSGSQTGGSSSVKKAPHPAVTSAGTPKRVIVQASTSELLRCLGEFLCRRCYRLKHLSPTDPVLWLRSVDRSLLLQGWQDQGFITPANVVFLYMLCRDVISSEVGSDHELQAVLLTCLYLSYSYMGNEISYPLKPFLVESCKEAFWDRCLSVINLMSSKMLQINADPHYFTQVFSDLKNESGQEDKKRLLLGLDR
Description: as §1, §2, §3, §4, §5, §6, §7, §8

[5] = molecular target: CDK1/CycE1 (Homo sapiens, UniProt P06493); test: ADP-Glo kinase assay on CDK enzymatic activity, CDK1/CycE1; settings: ADP-Glo; 10 concentrations from 10 μM, 4-fold; 60 min room temperature; read-out: CDK1/CycE1/nM (IC50)
CDK1/CycE1, sequence (P06493 whole entry, species assumed): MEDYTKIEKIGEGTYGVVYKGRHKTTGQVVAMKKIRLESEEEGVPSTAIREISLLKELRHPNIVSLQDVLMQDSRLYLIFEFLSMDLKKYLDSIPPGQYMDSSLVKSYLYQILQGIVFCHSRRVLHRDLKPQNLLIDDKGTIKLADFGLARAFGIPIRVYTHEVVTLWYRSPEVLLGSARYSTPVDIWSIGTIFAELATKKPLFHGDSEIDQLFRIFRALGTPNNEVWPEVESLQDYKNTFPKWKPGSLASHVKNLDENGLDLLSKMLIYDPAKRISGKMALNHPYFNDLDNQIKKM
CDK1/CycE1, sequence (P24864 whole entry partner, species assumed): as the sequence (P24864 whole entry partner, species assumed) above
Procedure: as §1, §3, §4, §5, §6, §7, §8

SMILES | IC50 [1] | IC50 [2] | IC50 [3] | IC50 [4] | IC50 [5]
CC(C)Nc1nc(C#N)cc2cnc(N[C@@H]3CN4CCC3CC4)cc12 [Compound 44, (S)-1-(isopropylamino)-7-(quinuclidin-3-ylamino)-2,6-naphthyridine-3-carbonitrile] | 1170 nM | 288 nM | 2 nM | 3630 nM | 
CC(=O)N[C@@H]1CCC[C@H](C(=O)Nc2cc3c(NC(C)C)nc(C#N)cc3cn2)C1 [Compound 2, (1S,3R)-3-acetamido-N-(7-cyano-5-(isopropylamino)-2,6-naphthyridin-3-yl)cyclohexane-1-carboxamide] | 669 nM | 179 nM | 8 nM | 783 nM | 
CC(C)Nc1nc(C#N)cc2cnc(N[C@@H]3CNCC(F)(F)C3)cc12 [Compound 43, (S)-7-((5,5-difluoropiperidin-3-yl)amino)-1-(isopropylamino)-2,6-naphthyridine-3-carbonitrile] | 13 nM | 75 nM | 2 nM | 23 nM | 
CC(C)Nc1nc(C#N)cc2cnc(N[C@@H]3CCCNC3)cc12 [Compound 39, (R)-1-(isopropylamino)-7-(piperidin-3-ylamino)-2,6-naphthyridine-3-carbonitrile] | 84 nM | 278 nM | 2 nM | 161 nM | 
CC(C)(C)Nc1nc(C#N)cc2cnc(N[C@H]3CC[C@H](N)C3)cc12 [Compound 34, 7-(((1S,3S)-3-aminocyclopentyl)amino)-1-(tert-butylamino)-2,6-naphthyridine-3-carbonitrile] | 128 nM | 137 nM | 2 nM | 238 nM | 
CC1(Nc2nc(C#N)cc3cnc(N[C@H]4CC[C@H](N)C4)cc23)CC1 [Compound 50, 7-(((1S,3S)-3-aminocyclopentyl)amino)-1-((1-methylcyclopropyl)amino)-2,6-naphthyridine-3-carbonitrile] | 73 nM | 208 nM | 2 nM | 119 nM | 
N#Cc1cc2cnc(N[C@H]3CC[C@H](N)C3)cc2c(NC2CCCC2)n1 [Compound 49, 7-(((1S,3S)-3-aminocyclopentyl)amino)-1-(cyclopentylamino)-2,6-naphthyridine-3-carbonitrile] | 57 nM | 105 nM | 2 nM | 93 nM | 
CCC(CC)Nc1nc(C#N)cc2cnc(N[C@H]3CC[C@H](N)C3)cc12 [Compound 48, 7-(((1S,3S)-3-aminocyclopentyl)amino)-1-(pentan-3-ylamino)-2,6-naphthyridine-3-carbonitrile] | 199 nM | 477 nM | 2 nM | 266 nM | 
CC(=O)N[C@@H]1CCC[C@H](C(=O)Nc2cc3c(NC(C)C)nc(CCO)cc3cn2)C1 [Compound 14, (1S,3R)-3-acetamido-N-(7-(2-hydroxyethyl)-5-(isopropylamino)-2,6-naphthyridin-3-yl)cyclohexane-1-carboxamide] | 284 nM | 91 nM | 11 nM | 187 nM | 
CC(C)Oc1nc(C#N)cc2cnc(N[C@H]3CC[C@H](N)C3)cc12 [Compound 51, 7-(((1S,3S)-3-aminocyclopentyl)amino)-1-isopropoxy-2,6-naphthyridine-3-carbonitrile] | 73 nM | 88 nM | 1 nM | 142 nM | 
CC(=O)N1CCC[C@H](C(=O)Nc2cc3c(NC(C)C)nc(C#N)cc3cn2)C1 [Compound 24, (S)-1-acetyl-N-(7-cyano-5-(isopropylamino)-2,6-naphthyridin-3-yl)piperidine-3-carboxamide] | 3340 nM | 862 nM | 26 nM | 5340 nM | 
CC(C)Nc1nc(C#N)cc2cnc(N[C@H]3CC[C@H](N(C)C)CC3)nc12 [Compound 138, 2-(((1r,4r)-4-(dimethylamino)cyclohexyl)amino)-8-(isopropylamino)pyrido[3,4-d]pyrimidine-6-carbonitrile] | 49 nM |  | 3 nM |  | 166 nM
N#Cc1cc2cnc(N[C@H]3CC[C@H](N)C3)cc2c(NCC2(C#N)CCOCC2)n1 [Compound 60, 7-(((1S,3S)-3-aminocyclopentyl)amino)-1-(((4-cyanotetrahydro-2H-pyran-4-yl)methyl)amino)-2,6-naphthyridine-3-carbonitrile] | 1810 nM | ≥ 12100 nM | 29 nM | 8390 nM | 
CC(C)CNc1nc(C#N)cc2cnc(N[C@H]3C[C@H](N)C3)nc12 [Compound C25, 2-(((1r,3r)-3-aminocyclobutyl)amino)-8-(isobutylamino)pyrido[3,4-d]pyrimidine-6-carbonitrile] | 34 nM |  | 1 nM |  | 86 nM

Continued by falling IC50 [1], values first:

IC50 [1] | IC50 [2] | IC50 [3] | IC50 [4] | IC50 [5] | SMILES
888 nM | 550 nM | 10 nM | 2200 nM |  | N#Cc1cc2cnc(N[C@H]3CCCNC3)cc2c(N[C@H](CO)c2ccccc2)n1 [Compound 104, 1-(((S)-2-hydroxy-1-phenylethyl)amino)-7-(((S)-piperidin-3-yl)amino)-2,6-naphthyridine-3-carbonitrile]
514 nM | 1210 nM | 4 nM | 461 nM |  | CC(C)Nc1nc(C#N)cc2cnc(N[C@H]3CC[C@@H](N)C3)cc12 [Compound 29, 7-(((1S,3R)-3-aminocyclopentyl)amino)-1-(isopropylamino)-2,6-naphthyridine-3-carbonitrile]
436 nM |  | 4 nM |  | 952 nM | N#Cc1cc2cnc(N[C@H]3CC[C@H](N)C3)cc2c(N[C@@H]2CCOC2)n1 [Compound 173, 7-(((1S,3S)-3-aminocyclopentyl)amino)-1-(((R)-tetrahydrofuran-3-yl)amino)-2,6-naphthyridine-3-carbonitrile]
402 nM | 41 nM | 13 nM | 527 nM |  | C#Cc1cc2cnc(NC(=O)[C@H]3CCC[C@@H](NC(C)=O)C3)cc2c(NC(C)C)n1 [Compound 13, (1S,3R)-3-acetamido-N-(7-ethynyl-5-(isopropylamino)-2,6-naphthyridin-3-yl)cyclohexane-1-carboxamide]
32 nM |  | 2 nM |  | 127 nM | CCCNc1nc(C#N)cc2cnc(N[C@H]3C[C@H](N)C3)nc12 [Compound C14, 2-(((1r,3r)-3-aminocyclobutyl)amino)-8-(propylamino)pyrido[3,4-d]pyrimidine-6-carbonitrile]
29 nM |  | 1 nM |  | 126 nM | CC(C)Oc1nc(C#N)cc2cnc(N[C@H]3C[C@H](N)C3)cc12 [Compound 207, 7-(((1r,3r)-3-aminocyclobutyl)amino)-1-isopropoxy-2,6-naphthyridine-3-carbonitrile]
15 nM | 14 nM | 1 nM | 10 nM |  | CC(C)Nc1nc(C(F)F)cc2cnc(N[C@H]3CCCNC3)cc12 [Compound 54, (S)-3-(difluoromethyl)-N^1-isopropyl-N^7-(piperidin-3-yl)-2,6-naphthyridine-1,7-diamine]
14 nM | 35 nM | 1 nM | 36 nM |  | CC(C)(C)Nc1nc(C#N)cc2cnc(N[C@H]3CC[C@H](O)C3)cc12 [Compound 35, 1-(tert-butylamino)-7-(((1S,3S)-3hydroxycyclopentyl)amino)-2,6-naphthyridine-3-carbonitrile]
8 nM |  | 2 nM |  | 23 nM | CC(C)(C)Nc1nc(C#N)cc2cnc(N[C@H]3C[C@H](N)C3)nc12 [Compound C18, 2-(((1r,3r)-3-aminocyclobutyl)amino)-8-(tert-butylamino)pyrido[3,4-d]pyrimidine-6-carbonitrile]
7 nM |  | 2 nM |  | 31 nM | CC(C)Nc1nc(C(F)F)cc2cnc(Nc3cc(CS(C)(=N)=O)ccn3)cc12 (centres unmarked) [Compound 163, ((2-((7-(difluoromethyl)-5-(isopropylamino)-2,6-naphthyridin-3-yl)amino)pyridin-4-yl)methyl)(methyl)sulfinylimine]
